Test results published in patent US20120064090A1, “THERAPEUTIC AGENT FOR CANCER HAVING REDUCED SENSITIVITY TO MOLECULAR TARGET DRUG AND PHARMACEUTICAL COMPOSITION FOR ENHANCING SENSITIVITY TO MOLECULAR TARGET DRUG” (KRINGLE PHARMA INC., priority 2009, published 2012).

Experiments:
H1975 [1] = assay: Induction of CL-387,785 resistance by HGF; assay type: cell-based, human; conditions: HGF 50 ng/mL, CL-387,785 0.03 to 3 μM, 72 hours, FIG. 9
Experimental: In the same manner as in the above (a), H1975 was seeded at 2×10^3 cells/well on 96-well plates. After 24-hour culture, CL-387,785 was added to the wells so that the final concentration might be set to the five levels of 0.03 to 3 μM. An HGF solution was further added to give a final concentration of 50 ng/mL, or was not added, and then culture was continued for 72 hours. The degree of cell growth was measured by the MTT method and the growth rate was calculated in the same manner as in the above (a).

HCC827 [2] = assay: Induction of gefitinib resistance by HGF, MTT growth rate; assay type: cell-based, human; conditions: HGF 2 to 50 ng/mL, gefitinib 0.01 to 1 μM, 72-hour culture, FIG. 1(b)
Experimental: (§1) PC-9 or HCC827 was seeded at 2×10^3 cells/well on 96-well plates and cultured for 24 hours. After that, gefitinib and HGF were added to the wells in combinations thereof at different concentrations. Specifically, gefitinib was added to each well so that the final concentration might be set to the five levels of 0.01 to 1 μM. Wells without gefitinib were also prepared for this experiment. An HGF solution was added to the wells so that the final concentration might be set to the five levels of 2 to 50 ng/mL. Wells without HGF were also prepared for this experiment. After 72-hour culture, 50 μL of an MTT solution (2 mg/mL, manufactured by Sigma) was added and incubation was performed at 37° C. for 2 hours. The culture media were removed, and dark blue crystals were dissolved by adding 100 μL of DMSO. The absorbance was measured with a microplate reader MTP-120 (Corona Electric Co., Ltd.) at the detection and reference wavelengths of 550 nm and 630 nm, respectively. The growth rate was shown as a relative value based on an untreated control. Each experiment was performed in triplicate and repeated thrice independently.

PC-9 [3] = assay: as above; assay type: cell-based, human; conditions: HGF 2 to 50 ng/mL, gefitinib 0.01 to 1 μM, 72-hour culture, FIG. 1(a)
Experimental: as §1

PC-9 [4] = assay: Single culture of PC-9 with or without HGF, MTT growth rate; assay type: cell-based, human; conditions: PC-9 single culture; HGF 50 ng/mL; gefitinib 0.3 μM; 72 hours; FIG. 5
Experimental: In the case of single culture of PC-9, PC-9 was seeded in each well of 24-well plates at 8×10^3 cells/700 μL and then cultured for 24 hours. After that, 50 ng/mL of HGF (final concentration) was added or not added, 0.3 μM of gefitinib (final concentration) was added or not added, 2 μg/mL of the control IgG (final concentration) or 2 μg/mL of the anti-human HGF neutralizing antibody (final concentration) was added or not added, and then culture was continued for 72 hours. After 72-hour culture, the degree of cell growth was measured by the MTT method and the growth rate was calculated in the same manner as in Example 1.

HCC827 [5] = assay: Induction of gefitinib resistance by various growth factors; assay type: cell-based, human; conditions: growth factor 20 ng/mL, gefitinib 0.3 or 1 μM, 72 hours, FIG. 3(b)
Experimental: (§2) In the same manner as in the above (a), PC-9 or HCC827 was seeded at 2×10^3 cells/well on 96-well plates, and after 24-hour culture, gefitinib was added to the wells so that the final concentration might be 0.3 or 1 μM. HGF, EGF, TGF-α or IGF-I was further added to give a final concentration of 20 ng/mL and then culture was continued for 72 hours. Wells without gefitinib and wells into which a culture medium was added instead of the growth factors were prepared for this experiment. After 72-hour culture, the degree of cell growth was measured by the MTT method and the growth rate was calculated in the same manner as in the above (a).

PC-9 [6] = assay: as above; assay type: cell-based, human; conditions: growth factor 20 ng/mL, gefitinib 0.3 or 1 μM, 72 hours, FIG. 3(a)
Experimental: as §2

[7] = test system: tumor formed of PC-9 and MRC-5 cells; assay: Xenograft tumor (PC-9 + MRC-5) transplanted into SCID mice; assay type: in vivo; conditions: PC-9 + MRC-5 s.c., days 4 to 16, gefitinib 25 mg/kg/day oral, antibody 5 mg/kg/day i.p., NK4 9 mg/kg/day i.p., FIG. 6
Experimental: SCID mice (female, 5 weeks old) were purchased from CLEA Japan.
100 μL of a cell suspension containing PC-9 (5×10^6 cells) and MRC-5 (5×10^6 cells) was subcutaneously inoculated from the back skin of each SCID mouse. Four days later, mice bearing a tumor exceeding 4 mm in diameter were randomly divided into 6 groups (5 mice per group) as shown in Table 1.
In gefitinib-treated groups (groups 4, 5 and 6 in Table 1), gefitinib (25 mg/kg/day) was orally administered once daily in the morning for 13 days from 4 days to 16 days after cell inoculation. In gefitinib-non-treated groups (groups 1, 2 and 3 in Table 1), a water containing 1% Tween80 was orally administered once daily in a similar manner to the above. In anti-HGF neutralizing antibody-treated groups (groups 2 and 5 in Table 1), the anti-HGF neutralizing antibody (5 mg/kg/day) was intraperitoneally administered once daily immediately after gefitinib administration for 13 days from 4 days to 16 days after cell inoculation. In NK4-treated groups (groups 3 and 6 in Table 1), NK4 (9 mg/kg/day) was intraperitoneally administered in divided portions twice a day in the morning immediately after gefitinib administration and in the evening for 13 days from 4 days to 16 days after cell inoculation.
The width and length of tumor were measured every other day, and the tumor area (width×length) was calculated. […]

H1975 [8] = assay: Effects of gefitinib or CL-387,785 on H1975, MTT growth rate; assay type: cell-based, human; conditions: 0.01 to 10 μM, 72 hours, FIG. 8
Experimental: (§3) After 80% confluent H1975 was stripped and collected, the cells were seeded at 2×10^3 cells/well on 96-well plates and cultured for 24 hours. After that, gefitinib or CL-387,785 was added to each well so that the final concentration might be set to the seven levels of 0.01 to 10 μM, and then culture was continued for 72 hours. After that, 50 μl, of an MTT solution (2 mg/mL, manufactured by Sigma) was added and incubation was performed at 37° C. for 2 hours. The culture media were removed, and dark blue crystals were dissolved by adding 100 μL of DMSO. The absorbance was measured with a microplate reader MTP-120 (Corona Electric Co., Ltd.) at the detection and reference wavelengths of 550 nm and 630 nm, respectively. The growth rate was shown as a relative value based on an untreated control. Each experiment was performed in triplicate and repeated thrice independently.

PC-9/mock = assay: PC-9 transfected with vector without the HGF gene, MTT growth rate; assay type: cell-based, human; conditions: gefitinib 0.3 μM, 72 hours, FIG. 4
Experimental: (§4) An HGF expression vector was prepared according to the description in “Ueki T, Kaneda Y, Tsutsui H, et al. Hepatocyte growth factor gene therapy of liver cirrhosis in rats. Nature Medicine 5, 226-230 (1 Feb. 1999)”. On the day before transfection, PC-9 prepared in a culture medium without any antibiotics was seeded at 2×10^4 cells/400 μL on 24-well plates and then cultured for 24 hours. The HGF expression vector was transfected into the cells by use of Lipofectamine 2000 (1 μL) (PC-9/HGF). As a control, a vector without the HGF gene was similarly transfected into the cells (PC-9/mock). After 24-hour culture, the cells were washed with PBS. Then, 0.3 μM of gefitinib (final concentration), 2 μg/mL of the anti-human HGF neutralizing antibody (final concentration) and/or 2 μg/mL of the control IgG (final concentration) were added, or not added, and then culture was continued for 72 hours. After 72-hour culture, the degree of cell growth was measured by the MTT method and the growth rate was calculated in the same manner as in Example 1.

PC-9/HGF = assay: PC-9 transfected with HGF expression vector, MTT growth rate; assay type: cell-based, human; conditions: gefitinib 0.3 μM, 72 hours, FIG. 4
Experimental: as §4

H1975 [9] = assay: Effects of SU11274 on H1975 with HGF-induced CL-387,785-resistance; assay type: cell-based, human; conditions: CL-387,785 0.3 μM, HGF 50 ng/mL, antibody 2 μg/mL, NK4 0.3 μM, 72 hours, FIG. 12
Experimental: H1975 was seeded at 2×10^3 cells/well on 96-well plates and cultured for 24 hours. […] The degree of cell growth was measured by the MTT method and the growth rate was calculated in the same manner as in the above (a).

PC-9 [10] = assay: Effects of SU11274 on PC-9 with HGF-induced gefitinib-resistance; assay type: cell-based, human; conditions: HGF 20 ng/mL, gefitinib 0.3 μM, antibody 1 μg/mL, NK4 0.3 μM, SU11274 0.3 μM, 72 hours, FIG. 11
Experimental: as §3, with “PC-9” for “After 80% confluent H1975”, “was” for “was stripped and collected, the cells were”, “After that, gefitinib or CL-387,785 was added to each well so that the final concentration might be set to the seven levels of 0.01 to 10 μM, and then culture was continued for 72 hours.” left out, “μL” for “μl,”

HGF
effect of HGF on sensitivity of H1975 to CL-387,785 (H1975 [1]): reduced the sensitivity of H1975 to CL-387,785
induction of gefitinib resistance (growth rate) (HCC827 [2]): induced gefitinib resistance of PC-9 and HCC827 in a concentration-dependent manner
induction of gefitinib resistance (growth rate) (PC-9 [3]): induced gefitinib resistance of PC-9 and HCC827 in a concentration-dependent manner
induction of gefitinib resistance (hyposensitivity) of PC-9 (PC-9 [4]): induced gefitinib resistance
induction of gefitinib resistance by growth factor (growth rate) (HCC827 [5]): remarkable capability of inducing gefitinib resistance
induction of gefitinib resistance by growth factor (growth rate) (PC-9 [6]): remarkable capability of inducing gefitinib resistance

IGF-I
induction of gefitinib resistance by growth factor (growth rate) (HCC827 [5]): slightly induced gefitinib resistance
induction of gefitinib resistance by growth factor (growth rate) (PC-9 [6]): slightly induced gefitinib resistance

TGF-α
induction of gefitinib resistance by growth factor (growth rate) (HCC827 [5]): slightly induced gefitinib resistance
induction of gefitinib resistance by growth factor (growth rate) (PC-9 [6]): slightly induced gefitinib resistance

EGF (NSDSECPLSHDGYCLHDGVCMYIEALDKYACNCVVGYIGERCQYRDLKWWELR; Epidermal growth factor; UniProt P01133 971-1023, looked up) [growth factor purchased from Invitrogen]
induction of gefitinib resistance by growth factor (growth rate) (HCC827 [5]): slightly induced gefitinib resistance
induction of gefitinib resistance by growth factor (growth rate) (PC-9 [6]): slightly induced gefitinib resistance

COc1cc2ncnc(Nc3ccc(F)c(Cl)c3)c2cc1OCCCN1CCOCC1 [gefitinib]
tumor volume / tumor growth over time [7]: increase in tumor volume was inhibited, but no significant regression was observed
sensitivity of H1975 to the drug (growth rate) (H1975 [8]): resistant
sensitivity of cells to gefitinib (growth rate) (PC-9/mock): sensitive
sensitivity of cells to gefitinib (growth rate) (PC-9/HGF): less sensitive

CC#CC(=O)Nc1ccc2ncnc(Nc3cccc(Br)c3)c2c1 [CL-387,785]
sensitivity of H1975 to the drug (growth rate) (H1975 [8]): sensitive

Cc1[nH]c(/C=C2\C(=O)Nc3ccc(S(=O)(=O)N(C)c4cccc(Cl)c4)cc32)c(C)c1C(=O)N1CCN(C)CC1 [SU11274, reference compound]
inhibition of HGF-induced hyposensitivity of H1975 to CL-387,785 (H1975 [9]): significantly inhibited
inhibition of HGF-induced hyposensitivity of PC-9 to gefitinib (PC-9 [10]): significantly inhibited
